Laboratory results published in PubChem BioAssay (NCI).
“And” between values parts separate entries of the source, which are not always exact repeats. Identical values can stand only once.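 In this assay, cells in 96-well plates receive the compound at five concentrations for 48 hours. Endpoints are linearly interpolated between the surrounding concentrations. GI50 is the concentration that inhibits growth by half. TGI denotes the concentration required for complete inhibition of growth.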

Legend:
Experiment in all cases: inhibition of tumour cell growth, NCI panel, 48 h
[1] = test system: HCC-2998 colon
[2] = test system: SN12C renal
[3] = test system: SNB-75 CNS
[4] = test system: EKVX NSCLC
[5] = test system: COLO 205 colon
[6] = test system: SK-MEL-28 melanoma
[7] = test system: SK-MEL-2 melanoma
[8] = test system: 786-0 renal
[9] = test system: HS 578T breast
[10] = test system: SF-268 CNS

Structure (SMILES)	GI50 [1]	TGI [1]	GI50 [2]	TGI [2]	GI50 [3]	TGI [3]	GI50 [4]	TGI [4]	GI50 [5]	TGI [5]	GI50 [6]	TGI [6]	GI50 [7]	TGI [7]	GI50 [8]	TGI [8]	GI50 [9]	TGI [9]	GI50 [10]	TGI [10]
CNC(=O)c1cc(Oc2ccc3nc(NC(=O)Nc4ccc(Cl)c(Cl)c4)sc3c2)ccn1	5.04 µM	> 100 µM	3.92 µM	> 100 µM	1.73 µM	3.61 µM	3.3 µM	> 100 µM	4.25 µM	> 100 µM	1.74 µM	3.56 µM	2.56 µM	5.97 µM	2.26 µM	5.11 µM	2.77 µM	6.66 µM	1.98 µM	4.21 µM
CCOC(=O)C1CCC/C1=N\N=C(N)N (configuration not stated) (tested in a mixture with another compound)	–	> 100 µM	–	> 100 µM	–	> 100 µM	–	> 100 µM	–	> 100 µM	–	> 100 µM	–	> 100 µM	–	> 100 µM	–	> 100 µM	–	> 100 µM
OCCNc1nc(NCCO)nc(Nc2ccc(C3=NN(c4cc(Cl)cc(Cl)c4)C(c4ccc(Cl)cc4)C3)cc2)n1 (configuration not stated)	1.96 µM	3.52 µM	1.82 µM	3.47 µM	1.51 µM	3.06 µM	2.04 µM	4.72 µM	1.91 µM	3.84 µM	1.61 µM	3.02 µM	2.13 µM	4.57 µM	1.64 µM	3.28 µM	2.22 µM	6.98 µM	1.86 µM	3.79 µM
CC(=O)OCC(=O)[C@@]1(O)[C@H](C)C[C@H]2[C@@H]3C=C(C)C4=Cc5c(cnn5-c5ccc(F)cc5)C[C@]4(C)[C@H]3[C@@H](O)C[C@@]21C	1.88 µM	3.77 µM	1.89 µM	7.08 µM	1.19 µM	4.14 µM	1.88 µM	10.4 µM	1.74 µM	3.34 µM	1.33 µM	2.81 µM	2.14 µM	6.36 µM	1.06 µM	2.55 µM	1.33 µM	4.05 µM	2.48 µM	8.39 µM
C#Cc1cccc(NC(=O)Nc2ccc(NC(=O)CCl)cc2)c1	52.5 µM	> 82.5 µM	12.7 µM	29.8 µM	8.39 µM	19.1 µM	> 82.5 µM	> 82.5 µM	20.5 µM	60.3 µM	> 82.5 µM	> 82.5 µM	> 82.5 µM	> 82.5 µM	12.5 µM	23.7 µM	17.8 µM	81.7 µM	12.7 µM	28.5 µM
CC1(C)OC2C(CO)OC(n3ccc(=O)[nH]c3=O)C2O1 (configuration not stated)	–	> 100 µM	–	> 100 µM	–	–	–	> 100 µM	–	> 100 µM	–	> 100 µM	–	> 100 µM	–	> 100 µM	–	> 100 µM	–	> 100 µM
O=C1N=C2c3c(sc4c3CCCC4)N=CN2C1N=Nc1ccc(Cl)cc1 (configuration not stated)	24.4 µM	91.2 µM	28.8 µM	> 100 µM	> 100 µM	> 100 µM	7.79 µM	39.1 µM	10.7 µM	39.3 µM	35.6 µM	> 100 µM	> 100 µM	> 100 µM	39.5 µM	> 100 µM	29.8 µM	> 100 µM	34.6 µM	> 100 µM
C[C@]12CC[C@H]3[C@@H](CCC4=CC(=O)CC[C@@H]43)[C@@H]1CC[C@@H]2OC1(O)C(=O)c2ccccc2C1=O	–	> 100 µM	–	34.4 µM	–	> 100 µM	–	2.79 µM	–	53 µM	–	> 100 µM	–	> 100 µM	–	83.5 µM	–	> 100 µM	–	> 100 µM
CC(C)(C)Cn1c(N)nc2ccc(-c3[nH]c(C(C)(C)C)nc3-c3ccc(F)cc3)nc21	11.1 µM	24.1 µM	5.57 µM	21.4 µM	2.3 µM	16.8 µM	3.19 µM	18.8 µM	7.76 µM	21.7 µM	11.6 µM	23.8 µM	13.1 µM	27.1 µM	9.75 µM	25.9 µM	13.7 µM	73 µM	10.6 µM	28.7 µM
COc1cc(N2CCC(N(C)C)CC2)ccc1Nc1ncc(Cl)c(Nc2ccccc2P(C)(C)=O)n1	3.6 µM and 0.446 µM	> 52.2 µM	0.971 µM and 0.398 µM	> 72.8 µM	1.07 µM and 0.228 µM	2.69 µM and 0.82 µM	0.344 µM	> 7.38 µM	0.252 µM and 0.0658 µM	1.12 µM and 0.33 µM	6.44 µM and 1.31 µM	37 µM and > 7.34 µM	1.14 µM and 0.728 µM	4.16 µM and 2.99 µM	1.12 µM and 0.483 µM	10 µM and > 6.3 µM	1.83 µM and 0.496 µM	8.27 µM and 2.21 µM	1.17 µM and 0.386 µM	5.04 µM and 2.76 µM
CCCCCC(=O)N1c2ccccc2NC2=C(C(=O)CC(c3ccc(OC)c(OC)c3)C2)C1c1ccc(C(F)(F)F)cc1 (configuration not stated)	> 100 µM	> 100 µM	> 100 µM	> 100 µM	15.3 µM	> 100 µM	–	–	> 100 µM	> 100 µM	> 100 µM	> 100 µM	> 100 µM	> 100 µM	> 100 µM	> 100 µM	> 100 µM	> 100 µM	> 100 µM	> 100 µM
Cc1ccc(NC(=O)c2ccnc(C(F)(F)F)c2)cc1-c1cc(OCCO)nc(N2CCOCC2)c1	0.464 µM	10 µM	3.31 µM	28.6 µM	1.46 µM	7.29 µM	2.44 µM	29.5 µM	0.445 µM	11.8 µM	0.377 µM	11.3 µM	0.192 µM	3.44 µM	6.29 µM	38.2 µM	2.59 µM	23.7 µM	4.08 µM	23.7 µM
CCCCCCC(C)CC(CCCCCC)NCCOC(=O)c1ccc([N+](=O)[O-])cc1 (configuration not stated)	–	42.8 µM and 9.35 µM	–	25.2 µM and 23.8 µM	–	30.4 µM and 33.4 µM	–	27.2 µM and 21.4 µM	–	17.9 µM and 12.8 µM	–	27 µM	–	30.7 µM and 28.6 µM	–	33.7 µM and 33.5 µM	–	41.5 µM and 41.1 µM	–	30.7 µM and 27.6 µM
COC(=O)C1=CN(CC2=CC(=O)C(C)=CC2=O)C=C(C(=O)OC)C1c1cccc(OC)c1OC	14.2 µM	27.2 µM	13.8 µM	34 µM	> 100 µM	> 100 µM	35.6 µM	> 100 µM	9.81 µM	> 32.6 µM	31 µM	> 57.9 µM	19.8 µM	52.1 µM	7.56 µM	25.3 µM	27.1 µM	> 87.3 µM	18.7 µM	> 68.4 µM
